Here are results for eight substances from publication PMC7456892 (Frontiers in Plant Science, 2020).

Entries after “also recorded” stand apart in the source; their conditions may differ. Where no end group is shown, it is not given here.

In series [1] the test system is pepsin. Briefly: SGF (200 mg NaCl, 10 units pepsin/µg test protein, pH 1.2). As to conditions: 37°C, up to 60 min.
The next series relates to F. graminearum. It is filed as cell-based, Fusarium graminearum isolate 73B1A. As to conditions: growth assay, 25°C, dark, 24 h, OD 595 nm.
Series [2] has as its target pepsin (Sus scrofa, UniProt P00791). Briefly: Simulated Gastric Fluid (SGF) pepsin digestion assay. It is filed as in vitro ADME. To be noted: pH 1.2. Here is the method:
Protein samples were analyzed for degradation by SDS PAGE followed by staining with RAPIDStain (Calbiochem) for 1 h after intense washing with ultrapure water. Digestion products from the SGF assays were analyzed by Matrix-assisted laser desorption/ionization time of flight (MALDI TOF) mass spectrometry. Samples were pre-incubated with 0.5 μl of 40 mM DTT for 20 min on the ground steel plate to reduce disulfide bonds. The samples were subsequently mixed with 2,5-dihydroxybenzoic acid (DHB) and the mass to charge ratio was measured for each sample using a Bruker Daltonics Ultraflex III MALDI-TOF/TOF Mass Spectrometer.

In another series the test system is C. graminicola. It is filed as cell-based, Colletotrichum graminicola isolate Carroll-1A-99. To be noted: growth assay, 25°C, dark, 40 h, OD 595 nm.
The subject of the next series is pancreatin. As to conditions: 37°C, up to 60 min.

Chain of pepsin (Sus scrofa, UniProt P00791) (P00791 60-385): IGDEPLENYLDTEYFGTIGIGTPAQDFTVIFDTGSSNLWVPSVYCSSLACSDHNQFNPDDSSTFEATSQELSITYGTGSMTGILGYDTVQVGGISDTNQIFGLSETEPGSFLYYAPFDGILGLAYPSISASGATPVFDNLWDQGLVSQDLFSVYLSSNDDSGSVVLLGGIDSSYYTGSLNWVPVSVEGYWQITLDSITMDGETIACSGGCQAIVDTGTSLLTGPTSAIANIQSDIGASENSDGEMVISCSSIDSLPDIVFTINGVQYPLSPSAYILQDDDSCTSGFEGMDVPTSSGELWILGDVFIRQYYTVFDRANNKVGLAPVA
Procedure for trypsin (pancreatin): Aliquots (320 µl) of each of SIF (60 mM KH2PO4, pH 7.5, 12 mg/ml pancreatin), SIF minus pancreatin and ultrapure water were added to individual glass vials with stir bars on a submersible stir plate (2mag MIX drive, Sigma Aldrich) in a 37°C water bath for 2 min before the addition of 40 µl of test protein (5 mg/ml) to each vial. Azoalbumin (A-2382, Sigma Aldrich) at a final concentration of 10 mg/ml in ultrapure water was used as the positive control for protease digestion. Protein degradation was assessed by SDS PAGE as described above.

For the substance “KDCLTRRHGFQGRCLFDRQCAHVCRSDGFIGGQCRGPLRKCFCSRPC”, the not cleaved entry with pepsin [1] is listed as “stable in the SGF assay for more than 60 min”.
In the case of “NaD1-C3S-C47S: NaD1 variant lacking the Cys3-Cys47 (fourth) disulfide bond (RESKTESNTFPGICITKPPCRKACISEKFTDGHCSKILRRCLCTKPS; not fully specified; ends and bridges not checked; UniProt Q8GTM0 26-72, looked up, variant C3S C47S)”, in the series with trypsin (pancreatin), the “Size of peptides after digestion in SIF” value is reported as “less than 2300 Da”. The “Antifungal activity against F. graminearum compared with wild type defensin, in words” value in the series with F. graminearum is “as active as unmodified NaD1”. Besides, the “Digestion in SGF, result in words” value with pepsin [2] is “partially digested”. Moreover, in the series with C. graminicola, the “Antifungal activity against C. graminicola compared with wild type defensin, in words” value is “as active as unmodified NaD1”.
As for “NaD1: class II plant defensin from the ornamental tobacco Nicotiana alata, purified from flowers (RECKTESNTFPGICITKPPCRKACISEKFTDGHCSKILRRCLCTKPC; ends and bridges not checked; cysteine pairing not given here; UniProt Q8GTM0 26-72, looked up)”, the “Mass of fragments Da at 60 min” value in the series with pepsin [2] is reported as 5296 Da.
On to “RECKTESHRFKGPCITKPPCRKACISEFFTDGHCSKILRRCLCTKPC”, for which the cleaved bond result in the series on pepsin [1] was “F28-F29, 10 min; also recorded: T16-K17, 10 min”.
Regarding “RECKTESHRFKGPCITKPPCRKACISEKFTDGHCSKILRRCLCTKPC”, the not cleaved entry in the series on pepsin [1] is recorded as “not degraded in SGF (60 min)”.
“RECKTESNTFPGICITKPPCRKACISEKFTDGHCSKILRRCLCTKPC”: the not cleaved result is “stable in the SGF assay for more than 60 min; also recorded: not cleaved” in the series with pepsin [1] and “not digested by SIF (60 min)” in the series with pancreatin.
Take “RECKTESRAFALECITKPPCRKACISEKFTDGHCSKILRRCLCTKPC”: the cleaved bond entry in the series with pepsin [1] was “A9-F10, 60 min”.
With “RESKTESRAFALECITKPPCRKACISEFFTDGHCSKILRRCLCTKPS”, in the series with pepsin [1], the cleaved bond entry is on record as “A9-F10, within 1 minute; also recorded: F28-F29, within 1 minute”.
